Source: ChEMBL document CHEMBL1201862, “PubChem BioAssay data set” (2004)
Calls of active or inactive are those of the source. Cut-off read from the data, not from the text of the source, for most assays here: actives have a measured EC50 and inactives only a lower limit.

Tests used:
[1] = NIH3T3 cell viability loss – ATP luminescence, mouse fibroblasts, counter-screen, dose response (AID 2010); format: functional, cell-based;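 note: cells exposed to compound for about 90 hours before reading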
[2] = Trypanosoma cruzi growth suppression in host cells – NIH3T3 host cells, beta-gal luminescence, confirmation (AID 2044); format: functional, cell-based;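 note: intracellular parasites grown in NIH/3T3 mouse fibroblasts as host cells; luminescent beta-galactosidase reporter signal from transgenic T. cruzi replicating inside host cells; inhibitors lower the luminescence signal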
[3] = Luminescence Cell-Based Dose Retest to Confirm Inhibitors of Cancer Stem Cells. [Related pubchem assays (depositor defined):AID2717, AID2721]; format: functional; conditions: Homo sapiens
Cytochrome P450 1A2 = target: T1, Cytochrome P450 1A2 (Homo sapiens, UniProt P05177);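 note: PubChem cytochrome P450 panel assay, CYP1A2 panel member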
T1 sequence (P05177 whole entry): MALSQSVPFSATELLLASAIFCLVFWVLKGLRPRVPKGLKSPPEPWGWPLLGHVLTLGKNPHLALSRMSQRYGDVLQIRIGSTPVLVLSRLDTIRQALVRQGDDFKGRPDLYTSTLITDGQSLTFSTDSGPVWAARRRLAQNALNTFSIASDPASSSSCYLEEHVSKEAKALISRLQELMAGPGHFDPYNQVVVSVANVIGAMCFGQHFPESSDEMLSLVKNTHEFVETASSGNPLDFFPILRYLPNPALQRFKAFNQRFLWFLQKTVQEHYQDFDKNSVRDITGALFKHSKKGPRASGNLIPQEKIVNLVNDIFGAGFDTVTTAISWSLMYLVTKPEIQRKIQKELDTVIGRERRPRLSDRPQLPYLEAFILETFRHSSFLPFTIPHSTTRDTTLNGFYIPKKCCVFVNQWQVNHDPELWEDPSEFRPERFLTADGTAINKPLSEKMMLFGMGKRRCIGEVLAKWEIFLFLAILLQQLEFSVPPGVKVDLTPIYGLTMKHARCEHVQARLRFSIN

[4] = system: Streptococcus sp. 'group A'; test: Streptococcus pyogenes SK(-)GAS viability under kanamycin – luminescence, BacTiterGlo, confirmation, counter-screen for streptokinase expression inhibitor project, dose response (AID 1900); format: functional, organism-based
Streptokinase A = target: T2, Streptokinase A (Streptococcus pyogenes serotype M1, UniProt P10520); test: viability-normalized secreted streptokinase activity reduction – plasminogen activation absorbance, OD405, dose response (AID 1914); format: functional, Streptococcus pyogenes M1 GAS;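 note: secreted streptokinase activity via plasminogen activation per viability signal from cell pellet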
T2 sequence (P10520 whole entry): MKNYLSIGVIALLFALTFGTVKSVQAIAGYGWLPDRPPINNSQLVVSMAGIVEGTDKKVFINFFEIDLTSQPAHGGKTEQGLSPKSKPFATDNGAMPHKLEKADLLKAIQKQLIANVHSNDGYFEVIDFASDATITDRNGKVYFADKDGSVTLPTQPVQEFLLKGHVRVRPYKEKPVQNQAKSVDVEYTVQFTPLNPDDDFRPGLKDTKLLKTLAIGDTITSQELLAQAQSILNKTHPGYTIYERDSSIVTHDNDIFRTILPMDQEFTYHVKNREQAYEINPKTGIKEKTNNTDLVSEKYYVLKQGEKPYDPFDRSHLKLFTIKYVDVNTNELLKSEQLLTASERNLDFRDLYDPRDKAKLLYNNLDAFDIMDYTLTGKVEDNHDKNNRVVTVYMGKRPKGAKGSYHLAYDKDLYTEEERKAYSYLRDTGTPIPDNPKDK

Streptococcus = test: GAS UMAA2166 growth inhibition – luminescence, BacTiterGlo, counter-screen for streptokinase expression inhibitor project, dose response (AID 1915); format: functional, organism-based;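 note: potency for reduction of bacterial viability or growth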
INS1 = test: INS-1E survival protection against cytokine death – cell-based, luminescence, retest, dose response (AID 449756); format: functional; conditions: Rattus norvegicus;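 note: cell death triggered by IL-1 beta plus TNF-alpha plus IFN-gamma mixture; protective hits raise ATP signal compared with cytokine alone wells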
[5] = viability of uninfected HEp-2 cells – cell-based, HTS, cytotoxicity control for RSV inhibitor project, dose response (AID 2410); format: functional; conditions: human respiratory syncytial virus

COCC(C)n1c(SCc2ccc(OC)c(F)c2)nc2ccccc2c1=O (stereo unspecified)
EC50 [1]: > 60 µM (not active)
EC50 [2]: 2.17 µM (active)

CN(C)CC(C)(C)C/N=C/c1c(O)[nH]c2ccccc12
EC50 [1]: > 30 µM (not active)
EC50 [2]: 0.152 µM (active)

Cc1cc(C)nc(NC(=O)/C=C/c2ccc3c(c2)OCO3)c1
AC50 [3]: 1.91 µM (active)

COc1ccc(C(=O)N/N=C(\C)Cn2nc([N+](=O)[O-])cc2C)cc1
AC50 (Cytochrome P450 1A2): 20 µM (inconclusive)

O=C(NCCc1ccccn1)c1ccc(OC2CCN(Cc3ccccn3)CC2)cc1
EC50 [4]: > 150 µM (not active)
EC50 (Streptokinase A): > 150 µM (not active)
EC50 (Streptococcus): > 150 µM (not active)

O=C(CCn1ccnc1)Nc1ccc2ccccc2c1
EC50 [1]: > 60 µM (not active)
EC50 [2]: 1.63 µM (active)

CCN(CC)S(=O)(=O)c1ccc(Cl)c(C(=O)Nc2ccc(Cl)cc2[N+](=O)[O-])c1
AC50 (INS1): 7.83 µM (active)

COc1cc([N+](=O)[O-])cc(/C=N/NC(=O)C(C)Nc2cccc(C)c2)c1O (stereo unspecified)
EC50 [4]: 10.9 µM (active)
EC50 (Streptokinase A): > 150 µM (not active)
EC50 (Streptococcus): > 150 µM (not active)

CCOC(=O)CC(=O)CSc1nc(N)c(C#N)c(-c2ccc(Cl)cc2)c1C#N
CC50 [5]: 23.6 µM (active)

COCc1cc(C)nc2sc(C(=O)NN)c(-n3cccc3)c12
CC50 [5]: 14.3 µM (active)

CN(C)CCCNS(=O)(=O)c1ccc(NC2CCCCCC2)c([N+](=O)[O-])c1
AC50 (INS1): 6.22 µM (active)

O=C(Nc1nc2cc3c(cc2s1)OCO3)C1CC1
EC50 [1]: > 60 µM (not active)
EC50 [2]: 1.3 µM (active)

O=C(c1cc2sccc2n1Cc1ccc(F)cc1)N1CCc2ccccc21
CC50 [5]: 36.2 µM (active)

CCNC(=O)COC(=O)/C=C/c1c(C)nn(Cc2cccc(OC)c2)c1Cl
CC50 [5]: > 50 µM (active)

Cc1cc(C(=O)CSc2nnc(N)s2)c(C)n1CCc1ccc(Cl)cc1
CC50 [5]: 17.1 µM (active)

CCOC(=O)C1(S(=O)(=O)c2ccc(Cl)cc2)CCN(Cc2ccc(Cl)cc2)CC1
AC50 (Cytochrome P450 1A2): 31.6 µM (inconclusive)

Cc1ccc(C)c(OCCCCN2CCNCC2)c1C
AC50 [3]: 1.03 µM (active)

CCCOc1ccc2c3c(c(=O)oc2c1OCCC)CCCC3
AC50 (INS1): 13.7 µM (active)
CC50 [5]: 23.5 µM (active)

Cc1nc(O)c(C#N)c(Nc2ccc(Cl)cc2)n1
CC50 [5]: 32.3 µM (active)

Cc1sc2[nH]c(-c3ccccn3)nc(=O)c2c1-c1ccccc1
EC50 (Streptokinase A): > 150 µM (not active)

Cc1c(CCC(=O)O)c(=O)oc2cc3occ(-c4ccc(Cl)cc4)c3cc12
EC50 [4]: 7.96 µM (active)
EC50 (Streptokinase A): > 150 µM (not active)
EC50 (Streptococcus): > 150 µM (not active)

CNc1nc(OC)nc(N(C#N)CN2C(=O)c3ccccc3S2(=O)=O)n1
EC50 [4]: > 150 µM (not active)
EC50 (Streptokinase A): > 150 µM (not active)
EC50 (Streptococcus): > 150 µM (not active)

O=C(Nc1ccccc1-c1nc2ccccc2[nH]1)c1ccc(S(=O)(=O)N2CCCCC2)cc1
AC50 (Cytochrome P450 1A2): 3.55 µM (inconclusive)

Cc1ccc(C)c(N2CCN(C(=O)c3ccc4c(c3)c(C)c(C)n4C)CC2)c1
AC50 [3]: 6.01 µM (active)

Cc1ccc(C)c(S(=O)(=O)NC(C)C(=O)Nc2ccc(-c3nc4ccccc4s3)cc2)c1 (stereo unspecified)
AC50 (Cytochrome P450 1A2): 15.8 µM (inconclusive)

CN1[C@@H]2CC[C@H]1CC(OC(=O)c1cc(Cl)cc(Cl)c1)C2 (stereo partly specified)
AC50 (Cytochrome P450 1A2): 31.6 µM (inconclusive)

COc1cc(NC(=O)Nc2cccc(Cl)c2)c(OC)cc1NC(=O)CN1CCCCC1
AC50 [3]: 4.44 µM (active)

NS(=O)(=O)c1ccc(NCc2cnc3ccccc3c2)cc1
AC50 (Cytochrome P450 1A2): 1.58 µM (inconclusive)

Cc1cc(C)nc(NC(=N)NCCc2c[nH]c3ccccc23)n1
EC50 [4]: 7.95 µM (active)
EC50 (Streptokinase A): > 150 µM (not active)
EC50 (Streptococcus): > 150 µM (not active)

COc1ccc(NC(=O)/C=C/c2cccc(F)c2)cn1
CC50 [5]: 34.7 µM (active)

Cc1cccc(-n2c(N)c(-c3nc4ccccc4n3C)c3nc4ccccc4nc32)c1
EC50 [4]: 3.66 µM (active)
EC50 (Streptokinase A): > 150 µM (not active)
EC50 (Streptococcus): > 150 µM (not active)

CCOCCCN=C(S)N1CCCN(c2nc3cc(C)cc(C)c3cc2C#N)CC1
CC50 [5]: 31.4 µM (active)

O=C(O)c1ccccc1NCn1c(=S)sc2ccccc21
AC50 (Cytochrome P450 1A2): 0.501 µM (inconclusive)

COc1ccc2nc(NC(=S)NC(=O)c3ccco3)sc2c1
CC50 [5]: > 50 µM (active)

Cc1ccc(-c2cc(C(F)F)nc(NCc3cccnc3)n2)cc1
EC50 [1]: > 60 µM (not active)
EC50 [2]: 3.05 µM (active)

CC1CCN(c2ccc(NC(=O)c3ccc([N+](=O)[O-])o3)cc2)CC1
AC50 (INS1): 10.3 µM (active)
EC50 [1]: 4.41 µM (active)
EC50 [2]: > 16 µM (not active)

Cc1ccc(CN(Cc2cccnc2)C(=O)CN2C(=O)COc3ccccc32)o1
EC50 [1]: > 60 µM (not active)
EC50 [2]: 0.276 µM (active)

CCOc1ccc(CNCCCSc2ncccn2)cc1
EC50 [1]: 9.74 µM (active)
EC50 [2]: 0.909 µM (active)

CC(C)[C@H](NC(=O)N1CC(=O)Nc2ccccc21)C(=O)N[C@@H](Cc1ccccc1)C(=O)O
EC50 [4]: > 150 µM (not active)
EC50 (Streptokinase A): > 150 µM (not active)
EC50 (Streptococcus): > 150 µM (not active)

COc1cc(C(=O)NCCCN(C)C)ccc1OCC(=O)Nc1cccc(C(F)(F)F)c1
EC50 [1]: > 60 µM (not active)
EC50 [2]: 1.23 µM (active)

COc1ccc(OC)c(NC(=O)c2cccc(Cn3cc(Br)c([N+](=O)[O-])n3)c2)c1
EC50 [1]: 9.07 µM (active)
EC50 [2]: 0.794 µM (active)

FCCCOc1ccc(-c2nccc(-c3ccc(F)cc3)n2)cc1
CC50 [5]: 26 µM (active)

CCC(C)Sc1ccc(-c2nc3ccc(C)cn3c2NC2CCCCC2)cc1 (stereo unspecified)
EC50 [1]: > 60 µM (not active)
EC50 [2]: 0.885 µM (active)

COC(=O)NC(=S)Nc1ccc(Oc2ccc(Cl)cc2)c(Cl)c1
EC50 [1]: > 60 µM (not active)
EC50 [2]: 2.41 µM (active)

O=C(c1ccco1)N1CCC2(CCCN(Cc3ccncc3)C2)CC1
AC50 (Cytochrome P450 1A2): 15.8 µM (inconclusive)

O=C(NNC(=S)NC(=O)c1ccccc1)c1cccc([N+](=O)[O-])c1
EC50 [4]: 3.85 µM (active)
EC50 (Streptococcus): 8.75 µM (active)

C[C@H](CO)N1C[C@H](C)[C@@H](CN(C)S(=O)(=O)c2ccccc2)Oc2ccc(NC(=O)Nc3ccc(C(F)(F)F)cc3)cc2C1=O
AC50 [3]: 8.42 µM (active)

CN(C)S(=O)(=O)Oc1ccsc1C(=O)Nc1cccc(Cl)c1Cl
EC50 [1]: > 60 µM (not active)
EC50 [2]: 3.47 µM (active)

COc1ccc(/C=C2\SC(=S)N(NS(=O)(=O)c3ccccc3)C2=O)c(OC)c1
CC50 [5]: 35.4 µM (active)

N#CCCn1c(=O)c(-c2ccccc2)nc2cnc(Nc3ccccc3)nc21
AC50 (Cytochrome P450 1A2): 0.794 µM (inconclusive)

COc1ccc(Br)cc1C(=O)Nc1cccc(C)c1
AC50 [3]: > 195 µM (inactive)
